Key:
[1] = target: Metabotropic glutamate receptor 4 (Rattus norvegicus, UniProt P31423)
[2] = target: Metabotropic glutamate receptor 2 (Homo sapiens, UniProt Q14416)
[3] = target: Metabotropic glutamate receptor 5 (Rattus norvegicus, UniProt P31424)
[4] = target: Metabotropic glutamate receptor 1 (Rattus norvegicus, UniProt P23385)

Measured: Ki

Metabotropic glutamate receptor 4, sequence (P31423 whole entry): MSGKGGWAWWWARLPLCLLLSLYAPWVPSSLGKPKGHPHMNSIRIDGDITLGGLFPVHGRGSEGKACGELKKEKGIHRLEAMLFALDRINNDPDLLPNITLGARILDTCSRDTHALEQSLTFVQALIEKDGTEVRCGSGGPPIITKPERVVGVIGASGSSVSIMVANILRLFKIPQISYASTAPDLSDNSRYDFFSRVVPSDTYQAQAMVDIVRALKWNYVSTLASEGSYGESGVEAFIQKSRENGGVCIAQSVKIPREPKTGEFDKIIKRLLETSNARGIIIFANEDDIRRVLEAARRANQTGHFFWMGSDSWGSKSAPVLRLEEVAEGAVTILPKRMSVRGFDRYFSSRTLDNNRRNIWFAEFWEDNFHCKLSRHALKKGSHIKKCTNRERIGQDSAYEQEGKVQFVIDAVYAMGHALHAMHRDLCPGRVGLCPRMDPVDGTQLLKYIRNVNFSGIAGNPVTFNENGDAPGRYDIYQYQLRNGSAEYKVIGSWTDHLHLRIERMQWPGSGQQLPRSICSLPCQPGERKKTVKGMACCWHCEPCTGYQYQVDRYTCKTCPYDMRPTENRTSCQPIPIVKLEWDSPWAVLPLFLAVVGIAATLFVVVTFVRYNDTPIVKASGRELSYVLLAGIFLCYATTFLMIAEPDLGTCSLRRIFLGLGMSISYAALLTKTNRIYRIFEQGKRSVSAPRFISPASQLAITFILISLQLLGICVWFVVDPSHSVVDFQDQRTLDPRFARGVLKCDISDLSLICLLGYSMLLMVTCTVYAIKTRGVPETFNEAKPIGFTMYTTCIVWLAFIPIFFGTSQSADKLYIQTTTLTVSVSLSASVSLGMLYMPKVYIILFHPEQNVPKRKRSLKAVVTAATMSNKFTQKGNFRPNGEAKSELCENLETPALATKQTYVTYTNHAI
Metabotropic glutamate receptor 1, sequence (P23385 whole entry): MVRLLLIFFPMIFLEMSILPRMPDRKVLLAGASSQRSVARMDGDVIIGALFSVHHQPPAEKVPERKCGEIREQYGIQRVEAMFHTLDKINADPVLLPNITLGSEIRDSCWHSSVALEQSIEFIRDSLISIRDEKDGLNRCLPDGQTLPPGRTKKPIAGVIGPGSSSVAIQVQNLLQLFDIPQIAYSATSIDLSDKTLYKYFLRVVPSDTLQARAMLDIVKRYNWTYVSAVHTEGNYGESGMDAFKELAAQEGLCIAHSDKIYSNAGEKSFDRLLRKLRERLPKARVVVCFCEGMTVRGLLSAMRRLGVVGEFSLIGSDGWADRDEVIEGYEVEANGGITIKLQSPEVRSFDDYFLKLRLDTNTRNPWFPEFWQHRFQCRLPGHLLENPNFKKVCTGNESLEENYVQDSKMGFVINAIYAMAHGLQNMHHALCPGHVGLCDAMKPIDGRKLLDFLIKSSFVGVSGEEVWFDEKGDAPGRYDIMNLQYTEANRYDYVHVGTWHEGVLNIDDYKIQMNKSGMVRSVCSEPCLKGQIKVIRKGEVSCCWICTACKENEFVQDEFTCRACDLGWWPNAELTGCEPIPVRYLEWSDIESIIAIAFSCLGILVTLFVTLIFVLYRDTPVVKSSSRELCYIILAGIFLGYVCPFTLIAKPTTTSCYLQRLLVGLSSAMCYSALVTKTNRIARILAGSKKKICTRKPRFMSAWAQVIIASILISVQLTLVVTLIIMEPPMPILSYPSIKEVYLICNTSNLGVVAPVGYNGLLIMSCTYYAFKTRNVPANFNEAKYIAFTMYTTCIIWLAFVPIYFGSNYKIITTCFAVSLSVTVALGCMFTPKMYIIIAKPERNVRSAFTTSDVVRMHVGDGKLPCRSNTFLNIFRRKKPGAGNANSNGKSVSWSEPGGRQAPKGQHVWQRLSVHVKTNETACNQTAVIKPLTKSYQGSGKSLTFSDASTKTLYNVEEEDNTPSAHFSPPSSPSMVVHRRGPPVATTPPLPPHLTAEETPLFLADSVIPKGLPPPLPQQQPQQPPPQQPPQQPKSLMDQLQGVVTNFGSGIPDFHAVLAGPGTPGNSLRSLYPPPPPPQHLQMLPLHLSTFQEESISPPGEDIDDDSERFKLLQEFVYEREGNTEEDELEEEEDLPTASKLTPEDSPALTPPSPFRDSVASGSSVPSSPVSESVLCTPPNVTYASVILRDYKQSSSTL
Metabotropic glutamate receptor 2, sequence (Q14416 whole entry): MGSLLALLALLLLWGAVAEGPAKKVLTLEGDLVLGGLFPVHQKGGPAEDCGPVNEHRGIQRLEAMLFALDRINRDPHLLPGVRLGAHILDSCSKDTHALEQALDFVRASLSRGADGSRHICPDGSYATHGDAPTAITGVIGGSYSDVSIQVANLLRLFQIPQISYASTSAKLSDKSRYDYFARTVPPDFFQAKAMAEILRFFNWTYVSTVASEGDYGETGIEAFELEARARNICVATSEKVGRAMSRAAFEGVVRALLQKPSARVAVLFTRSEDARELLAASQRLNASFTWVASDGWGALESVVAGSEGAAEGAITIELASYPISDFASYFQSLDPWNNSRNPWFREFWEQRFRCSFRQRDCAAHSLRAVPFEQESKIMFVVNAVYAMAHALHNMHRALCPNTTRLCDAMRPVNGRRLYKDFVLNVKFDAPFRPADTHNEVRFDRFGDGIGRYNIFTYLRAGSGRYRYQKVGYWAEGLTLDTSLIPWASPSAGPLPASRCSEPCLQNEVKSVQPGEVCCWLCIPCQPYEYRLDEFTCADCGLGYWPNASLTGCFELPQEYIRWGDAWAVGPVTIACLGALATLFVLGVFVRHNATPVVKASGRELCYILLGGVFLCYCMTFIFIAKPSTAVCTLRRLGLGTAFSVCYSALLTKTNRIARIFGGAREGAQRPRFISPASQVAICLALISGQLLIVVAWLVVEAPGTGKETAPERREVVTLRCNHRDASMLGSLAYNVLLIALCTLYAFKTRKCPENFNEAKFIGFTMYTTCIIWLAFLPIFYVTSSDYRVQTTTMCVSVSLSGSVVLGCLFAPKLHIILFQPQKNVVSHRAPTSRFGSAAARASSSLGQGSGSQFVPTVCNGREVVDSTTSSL
Metabotropic glutamate receptor 5, sequence (P31424 whole entry): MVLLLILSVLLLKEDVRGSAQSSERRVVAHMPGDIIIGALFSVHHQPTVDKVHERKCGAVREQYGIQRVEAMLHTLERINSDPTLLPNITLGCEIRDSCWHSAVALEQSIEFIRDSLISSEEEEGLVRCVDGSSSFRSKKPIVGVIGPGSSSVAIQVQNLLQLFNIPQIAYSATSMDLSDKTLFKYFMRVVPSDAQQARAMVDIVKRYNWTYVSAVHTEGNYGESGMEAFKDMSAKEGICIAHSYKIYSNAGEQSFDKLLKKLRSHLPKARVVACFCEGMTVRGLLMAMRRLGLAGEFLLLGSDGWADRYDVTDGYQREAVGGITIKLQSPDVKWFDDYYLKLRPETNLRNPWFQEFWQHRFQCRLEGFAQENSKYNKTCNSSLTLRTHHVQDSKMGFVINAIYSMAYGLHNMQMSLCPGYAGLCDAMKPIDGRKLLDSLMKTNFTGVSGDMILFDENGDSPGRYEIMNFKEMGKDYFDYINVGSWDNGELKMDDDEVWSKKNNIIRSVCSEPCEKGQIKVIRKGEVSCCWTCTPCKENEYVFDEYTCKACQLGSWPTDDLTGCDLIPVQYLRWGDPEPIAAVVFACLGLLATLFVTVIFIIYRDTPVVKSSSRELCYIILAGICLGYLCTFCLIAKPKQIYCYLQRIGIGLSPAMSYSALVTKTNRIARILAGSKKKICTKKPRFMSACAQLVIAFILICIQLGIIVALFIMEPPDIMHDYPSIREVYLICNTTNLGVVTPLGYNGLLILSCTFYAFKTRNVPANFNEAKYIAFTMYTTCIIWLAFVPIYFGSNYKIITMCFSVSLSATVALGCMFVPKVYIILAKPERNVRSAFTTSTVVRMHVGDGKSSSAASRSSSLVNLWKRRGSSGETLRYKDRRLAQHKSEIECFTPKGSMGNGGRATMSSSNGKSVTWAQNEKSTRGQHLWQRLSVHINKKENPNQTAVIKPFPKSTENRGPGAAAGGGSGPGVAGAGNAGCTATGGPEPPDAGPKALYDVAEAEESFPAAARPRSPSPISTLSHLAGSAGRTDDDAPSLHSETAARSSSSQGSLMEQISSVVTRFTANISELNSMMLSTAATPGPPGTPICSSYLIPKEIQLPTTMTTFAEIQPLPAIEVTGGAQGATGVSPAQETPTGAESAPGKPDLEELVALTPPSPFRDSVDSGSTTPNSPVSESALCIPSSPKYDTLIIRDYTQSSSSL

Cc1c(C[C@@H](N)C(=O)O)o[nH]c1=O [(S)-4-Methylhomoibotenic acid]
> 10 µM: [1] | [2] | [3] | [4]

N[C@H](Cc1cc(=O)[nH]o1)C(=O)O [CAS_194385]
> 10 µM: [1] | [2] | [3] | [4]

N[C@H](C(=O)O)c1ccc(C(=O)O)cc1 [4-((S)-Amino-carboxy-methyl)-benzoic acid]
> 10 µM: [3] | [4]

CCCCc1c(C[C@H](N)C(=O)O)o[nH]c1=O [(R)-Bu-HIBO]
> 10 µM: [1] | [2] | [3] | [4]

N[C@H](Cc1onc(O)c1Br)C(=O)O [NSC_2733518]
> 10 µM: [1] | [2] | [3] | [4]

NC(C(=O)O)c1cc(=O)[nH]o1 (stereo unspecified) [Amino-(3-hydroxy-isoxazol-5-yl)-acetic acid(Ibotenic acid)]
> 10 µM: [1] | [3] | [4]

N[C@@H](Cc1o[nH]c(=O)c1Br)C(=O)O [NSC_2733518]
> 10 µM: [1] | [2] | [3] | [4]

N[C@@H](CCC(=O)O)C(=O)O [L-Glutamic acid]
> 10 µM: [1]

N[C@@H](Cc1cc(=O)[nH]o1)C(=O)O [CAS_194385]
> 10 µM: [1] | [2] | [3] | [4]

CCCCc1c(O)noc1C[C@@H](N)C(=O)O [CAS_77006-30-5]
> 10 µM: [1] | [2] | [3] | [4]

N[C@H](CCCC(=O)O)C(=O)O [CAS_542-32-5]
> 10 µM: [1] | [2] | [3] | [4]

Cc1c(C[C@H](N)C(=O)O)o[nH]c1=O [(2S)-2-amino-3-(3-hydroxy-4-methyl-1,2-oxazol-5-yl)propanoic acid]
> 10 µM: [1] | [2] | [3]
